Measurements from patent US12370152B2, “Pharmaceutical composition for preventing or treating metabolic diseases” (INDUSTRY ACADEMIC COOPERATION FOUNDATION CHOSUN UNIVERSITY, priority 2021, dated 2025).

Legend:
SIRT1, AMPK and ACC = assay: Western blot of SIRT1, AMPK and ACC in HepG2 cells; format: cell-based
Procedure: (§1) HepG2 hepatocytes were cultured in low glucose Dulbecco's modified Eagle medium (DMEM) (Gibco, Life Technologies, Grand Island, NY, USA) to which 10% FBS (Gibco, Life Technologies, USA), L-glutamine, and 1% penicillin/streptomycin solution were added. The cells were manipulated in a humidified incubator at 37° C. containing 5% CO2 under a sterile condition. The cells were sub-cultured as soon as they reached confluence. The cells were continuously monitored under a bright-field microscope (Nikon Eclipse TS100, Tokyo, Japan), and the medium was replaced every 3 days. For cell viability assays, the cells were seeded and treated with 0 μM-2000 μM camphorquinone (CQ) for 24 hours, then incubated in MTT solution (0.5 mg/ml) for 2 hours, and then formazan crystals were dissolved using dimethyl sulfoxide (DMSO). Cell viability was evaluated using a spectrophotometer (Multiskan FC, Thermo Fisher Scientific).
(§2) Total proteins were extracted with a RIPA lysis buffer system including phenylmethylsulfonyl fluoride (PMSF), sodium orthovanadate (Na3VO4) and protease inhibitor cocktail (Santa Cruz Biotechnology) at 4° C. for 30 minutes, and the extracted sample was centrifuged at 16,000×g for 20 minutes. The concentration of total proteins was quantified using a Pierce BCA Protein Assay Kit (Thermo Fisher Scientific). The proteins (30 to 50 μg) were loaded and separated through sodium dodecyl sulfate-polyacrylamide gel electrophoresis (SDS-PAGE), and then blotted with a PVDF membrane (GE Healthcare, Germany). In order to prevent nonspecific binding of the primary antibodies, the membrane was blocked with TBST including 1% non-fat dry milk for 1 hour and 30 minutes at room temperature (RT). Then, the membrane was incubated overnight at 4° C. together with each primary antibody. The secondary antibodies were conjugated with horseradish peroxidase and visualized with an enhanced chemiluminescence detection kit (GE Healthcare). Analysis of density measurement was performed using Image J software.

[1] = test system: HFD+STZ-induced type 2 diabetic mice; assay: Body weight and liver weight in HFD+STZ-induced type 2 diabetic mice; format: in vivo, C57BL/6 mice; conditions: CQ-L, 10 mg/kg/day i.p., 3 weeks
Procedure: (§3) 6-week-old male C57BL/6 mice (weight 22±2 g) were purchased from Samtako Bio Korea Co., Ltd. (Osan, Gyeonggi-do, Korea). The mice were maintained at 23 to 25° C. under a 12 h light-dark cycle with free access to food and water in a pathogen-free animal facility center. All animal experiments were approved in accordance with the Chosun University Institutional Animal Care and Use Committee (CIACUC2020-S0009). All animals were fed normal chow pellets (ND, SAM #31, Samtako, Inc.), and went through a period of adjustment for 1 week. During the following week, the animals were randomly classified according to the body weight, and one-third of the animals were classified as normal controls to be fed normal chow pellets throughout the study. On the other hand, the remaining animals were fed a high-fat diet (HFD; 60% Kcal energy as fat) (study diet; #D12492; New Brunswick, NJ 08901 USA) for 2 weeks in order to induce insulin resistance, and the diet was continued until the study ended. Then, STZ (30 mg/kg, i.p.) was administered to the animals for 5 consecutive days from the 4th week to induce T2DM therein. On the other hand, the normal control animals were administered the same volume of citrate buffer instead of the STZ. Blood glucose levels of the animals were measured at the end of week 5, and animals showing a fasting blood glucose level (FBG)≥200 mg/dl were selected for the study. […]

[2] = test system: HFD+STZ-induced type 2 diabetic mice; assay: Glucose tolerance test in HFD+STZ-induced type 2 diabetic mice; format: in vivo, C57BL/6 mice; conditions: 1.5 g/kg d-glucose i.p., within 2 hours, vs HFD mouse group
Procedure: as §3

[3] = test system: IL1α, IL1β, IL6, p53, TNFα and RAGE; assay: qRT-PCR of inflammatory markers in liver of diabetic mouse model; format: in vivo, C57BL/6 mice; conditions: CQ-L, 10 mg/kg/day i.p., vs HFD mouse group
Procedure: as §3, with “On the other hand, the remaining animals were fed a high-fat diet (HFD; 60% Kcal energy as fat) (study diet; #D12492; New Brunswick, NJ 08901 USA) for 2 weeks in order to induce insulin resistance, and the diet was continued until the study ended. Then, STZ (30 mg/kg, i.p.) was administered to the animals for 5 consecutive days from the 4th week to induce T2DM therein. On the other hand, the normal control animals were administered the same volume of citrate buffer instead of the STZ.” left out
(§4) Total RNA was separated from liver tissue of the mouse model using RNAisoPlus (Takara). Then, total RNA (2.5 μg) was reverse transcribed using a Primescript™ II 1st strand cDNA synthesis kit (Takara), and quantified using a Power SYBR Green PCR Master mix (Applied BioSystems). […]

[4] = test system: SREBP1, FASN, ChREB, CPT1a and CPT1b; assay: qRT-PCR of lipid production and β-oxidation genes in liver of diabetic mouse model; format: in vivo, C57BL/6 mice; conditions: CQ-L, 10 mg/kg/day i.p., vs HFD mouse group
Procedure: (§5) 6-week-old male C57BL/6 mice (weight 22±2 g) were purchased from Samtako Bio Korea Co., Ltd. (Osan, Gyeonggi-do, Korea). The mice were maintained at 23 to 25° C. under a 12 h light-dark cycle with free access to food and water in a pathogen-free animal facility center. All animal experiments were approved in accordance with the Chosun University Institutional Animal Care and Use Committee (CIACUC2020-S0009). All animals were fed normal chow pellets (ND, SAM #31, Samtako, Inc.), and went through a period of adjustment for 1 week. During the following week, the animals were randomly classified according to the body weight, and one-third of the animals were classified as normal controls to be fed normal chow pellets throughout the study. On the other hand, the remaining animals were fed a high-fat diet (HFD; 60% Kcal energy as fat) (study diet; #D12492; New Brunswick, NJ 08901 USA) for 2 weeks in order to induce insulin resistance, and the diet was continued until the study ended. Then, STZ (30 mg/kg, i.p.) was administered to the animals for 5 consecutive days from the 4th week to induce T2DM therein. On the other hand, the normal control animals were administered the same volume of citrate buffer instead of the STZ. Blood glucose levels of the animals were measured at the end of week 5, and animals showing a fasting blood glucose level (FBG)≥200 mg/dl were selected for the study. Finally, the animals were divided into the following 4 groups; Group 1: saline-treated normal control mice (Control), Group 2: saline-treated diabetic control mice (HFD), Group 3: camphorquinone (10 mg/kg/day, i.p.)-treated diabetic mice (CQ-L), and Group 4: camphorquinone (30 mg/kg/day, i.p.)-treated diabetic mice (CQ-H). […]
as §4

[5] = test system: lipid synthesis marker (ChREB) and lipid β-oxidation markers (CES1, CES2 and CPT1A); assay: qRT-PCR of lipid metabolism genes in FFA-treated cell model; format: cell-based
LKB1, PGC1a and CRTC2 = assay: Expression of LKB1, PGC1a and CRTC2 in liver of diabetic mouse model; format: in vivo, C57BL/6 mice; conditions: CQ treatment vs HFD+STZ-treated HFD mouse group
Procedure: as §5, §4

[6] = test system: HFD+STZ-induced type 2 diabetic mice; assay: Fasting blood glucose in HFD+STZ-induced type 2 diabetic mice; format: in vivo, C57BL/6 mice; conditions: 3 weeks, vs HFD+STZ-treated mice
Procedure: as §3

AMPK and SIRT1 = assay: Immunoblotting of AMPK and SIRT1 in liver tissue of diabetic mouse model; format: in vivo, C57BL/6 mice; conditions: vs HFD mouse group
Procedure: as §2, §3

FFA-treated HepG2 cells = assay: Oil Red O staining, lipid accumulation in FFA-treated HepG2 cells; format: cell-based; conditions: FFA-treated HepG2 cells (0.2 mM PA + 0.4 mM OA 24 hours), then 500 μM CQ 24 hours
Procedure: (§6) Free fatty acids (FFA) were prepared from a combination of palmitic acid (PA) and oleic acid (OA). In short, stocks of 100 mM palmitic acid and 100 mM oleic acid dissolved in sodium hydroxide were prepared. These stock solutions were conjugated with 10% BSA (1:9) solution. All stock solutions were stored at −20° C. The cells were seeded and attached to a 6-well plate, then the cells were treated with a mixture of 0.2 mM PA and 0.4 mM OA (1:2) for 24 hours or the same volume of 10% BSA solution for 24 hours. FFA was removed the next day and 500 μM of camphorquinone was added to the mixture and left for 24 hours. Thereafter, the plate was used for protein and oil red staining.
Oil Red O stock solution dissolved in isopropyl alcohol was prepared by magnetic stirring at room temperature for 2 hours, and the prepared solution was stored at room temperature. Then, Oil Red O working solution was prepared by mixing 1.5 parts of stock solution and 1 part of water (3:2), and incubated at 4° C. for 10 minutes. The solution was filtered through a 0.02 μm filter and used within 6 hours. […] The stained lipid droplets were dissolved in 2-propanol, and absorbance at 520 nm was measured to quantify lipid accumulation.

AMPK, SIRT1 and ACC = assay: Western blot of AMPK, SIRT1 and ACC in FFA-treated HepG2 fatty hepatocyte model; format: cell-based; conditions: FFA-treated hepatocytes, 500 μM CQ 24 hours
Procedure: as §6, §2

LKB1 and ERK = LKB1 and ERK signals in liver tissue of diabetic mouse model; format: in vivo, C57BL/6 mice; conditions: vs HFD mouse group
Procedure: as §2, §3

HepG2 cells = assay: MTT assay, cytotoxicity in HepG2 cells; format: cell-based; conditions: 24 hours
Procedure: as §1

[7] = by treatment concentration of CQ

## c1cc(-c2cnn3cc(-c4ccc(OCCN5CCCCC5)cc4)cnc23)ccn1 [Compound C, reference compound]
SIRT1, AMPK and ACC; CC treatment together with CQ
  CQ-induced ACC protein expression: significantly decreased
  CQ-induced AMPK protein expression: significantly decreased
  CQ-induced SIRT1 protein expression: significantly decreased

## CC12CCC(C(=O)C1=O)C2(C)C (stereo not drawn) [camphorquinone]
[1]
  body weight: gradually decreased
  liver weight: gradually decreased
[2]; CQ-H, 30 mg/kg/day i.p.
  glucose tolerance: improved
[2]; CQ-L, 10 mg/kg/day i.p.
  glucose tolerance: improved
[3]
  expressions of most inflammatory markers in the liver (IL1α, IL1β, IL6, p53, TNFα and RAGE): significantly decreased
[4]
  expression of FASN (lipid production) in liver: significantly decreased
  expression of SREBP1 (lipid production) in liver: significantly decreased
  expression of the lipid β-oxidation gene CPTa in liver: significantly increased
[5]
  expression of lipid β-oxidation marker: increased
  expressions of lipid synthesis markers: decreased
SIRT1, AMPK and ACC; CQ at 500 μM, increase was decreased at the high concentration
  SIRT1, AMPK and ACC expression: significant increase
SIRT1, AMPK and ACC; [7]
  ACC expression: significantly increased in a dose-dependent manner
  AMPK expression: significantly increased in a dose-dependent manner
  SIRT1 expression: significantly increased in a dose-dependent manner
LKB1, PGC1a and CRTC2
  expression of CRTC2 in liver: increased
  expression of LKB1 in liver: increased
  expression of PGC1a in liver: increased
[6]; CQ-H, 30 mg/kg/day i.p.
  fasting blood glucose levels: significantly decreased
[6]; CQ-L, 10 mg/kg/day i.p.
  fasting blood glucose levels: significantly decreased
AMPK and SIRT1; CQ-H, 30 mg/kg/day i.p.
  AMPK in liver tissue: activated
  SIRT1 in liver tissue: activated
AMPK and SIRT1; CQ-L, 10 mg/kg/day i.p.
  AMPK in liver tissue: activated
  SIRT1 in liver tissue: activated
FFA-treated HepG2 cells
  lipid accumulation (Oil red O staining): reduced
AMPK, SIRT1 and ACC
  activation of ACC: restored
  activation of AMPK: restored
  activation of SIRT1: restored
LKB1 and ERK; CQ-H, 30 mg/kg/day i.p.
  ERK marker in liver tissue: highly expressed
  LKB1 marker in liver tissue: highly expressed
LKB1 and ERK; CQ-L, 10 mg/kg/day i.p.
  ERK marker in liver tissue: highly expressed
  LKB1 marker in liver tissue: highly expressed
HepG2 cells; at a high concentration (above 500 μM; 0-2000 μM tested)
  cell viability (MTT assay): decreased
HepG2 cells; up to 500 μM
  cytotoxicity (MTT assay): No cytotoxicity
